Laboratory results taken from patent US11999727B2 (Tango Therapeutics, Inc., priority 2020, dated 2024).
Read-outs that look alike come from different tables or passages of the source.

Tests used:
PRMT5 [1] = molecular target: T1, PRMT5 (Homo sapiens, UniProt O14744); assay: PRMT5 biochemical IC50 assay with SAM as cofactor; settings: PRMT5, SAM as cofactor; read-out: SAM IC50
T1 construct: purchased Viva (custom protein)

PRMT5 [2] = molecular target: T1, PRMT5; assay: PRMT5 biochemical IC50 assay with no cofactor; settings: PRMT5, no cofactor
Excerpt: Table 1 indicates IC50 values (μM) against PRMT5 for exemplary compounds in the presence of SAM as cofactor, with no cofactor, and with MTA as cofactor, respectively (columns 4-6). […] Ki values can be calculated from the IC50 values as described in the Examples section. As detailed in the Examples section, for the assay performed in the presence of SAM, IC50=Ki×1.5 (Ki=IC50/1.5).

PRMT5 [3] = molecular target: T1, PRMT5; assay: PRMT5 biochemical IC50 assay with MTA as cofactor; settings: PRMT5, MTA as cofactor; read-out: MTA IC50
[4] = tested on: HAP1 MTAP-intact cell line; assay: SDMA in-cell western assay, HAP1 MTAP-intact; type: cell-based; settings: HAP1 MTAP-intact, read-out: MTAP HAP1 intact IC50
Summary of the method: (§1)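 Isogenic HAP1 pair: the MTAP-intact line expresses endogenous MTAP, and the deleted line is MTAP-null. Symmetric dimethylarginine was detected by in-cell western and IC50 values derived for each line.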

[5] = tested on: HAP1 MTAP-deleted cell line; assay: SDMA in-cell western assay, HAP1 MTAP-deleted; type: cell-based; settings: for IC50: HAP1 MTAP-deleted
Summary of the method: as §1

[6] = tested on: HAP1 MTAP-deleted cell line; assay: Viability assay, MTAP-deleted cell line; type: cell-based; settings: read-out: HAP1 MTAP deleted viability
Excerpt: Table 1 additionally indicates IC50 values in a viability assay for the MTAP-deleted cell line (column 10), indicating the effect of treatment with compound on cell survival.

[7] = Homo sapiens, HAP1, SDMA in-cell western
[8] = Homo sapiens, HAP1, SDMA in-cell western, read-out: HAP1 MTAP deleted IC50
[9] = IC50 ratio HAP1 MTAP-intact / HAP1 MTAP-deleted, SDMA in-cell western
[10] = Homo sapiens, HAP1, viability assay, MTAP-deleted cell line
[11] = read-out: No Cofactor/ rel IC50
[12] = Homo sapiens, HAP1, SDMA in-cell western, read-out: HAP 1 MTAP deleted IC50
[13] = Homo sapiens, HAP1, viability, HAP1 MTAP-deleted cell line
[14] = IC50 ratio HAP1 MTAP-intact vs HAP1 MTAP-deleted, SDMA in-cell western
[15] = viability assay, MTAP-deleted cell line
[16] = Homo sapiens, HAP1, viability assay, HAP1 MTAP-deleted

T1 sequence (O14744 whole entry): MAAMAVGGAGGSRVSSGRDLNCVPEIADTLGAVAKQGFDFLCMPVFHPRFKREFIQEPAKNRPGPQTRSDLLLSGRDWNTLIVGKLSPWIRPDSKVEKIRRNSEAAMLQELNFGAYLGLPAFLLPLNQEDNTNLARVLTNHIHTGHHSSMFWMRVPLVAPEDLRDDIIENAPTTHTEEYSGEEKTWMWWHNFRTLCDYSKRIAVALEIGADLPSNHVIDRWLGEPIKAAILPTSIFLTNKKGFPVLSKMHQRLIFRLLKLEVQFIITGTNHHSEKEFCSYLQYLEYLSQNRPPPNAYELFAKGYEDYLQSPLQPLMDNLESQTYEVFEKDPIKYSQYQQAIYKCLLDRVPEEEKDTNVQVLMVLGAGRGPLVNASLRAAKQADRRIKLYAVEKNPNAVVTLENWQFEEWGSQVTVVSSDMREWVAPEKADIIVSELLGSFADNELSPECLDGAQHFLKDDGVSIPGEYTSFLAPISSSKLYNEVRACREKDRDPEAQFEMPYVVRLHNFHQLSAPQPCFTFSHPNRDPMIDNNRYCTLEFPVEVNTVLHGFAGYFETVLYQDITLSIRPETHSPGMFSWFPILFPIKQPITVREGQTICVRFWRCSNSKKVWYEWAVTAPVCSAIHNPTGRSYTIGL
T1 sequence (Q9BQA1 whole entry partner): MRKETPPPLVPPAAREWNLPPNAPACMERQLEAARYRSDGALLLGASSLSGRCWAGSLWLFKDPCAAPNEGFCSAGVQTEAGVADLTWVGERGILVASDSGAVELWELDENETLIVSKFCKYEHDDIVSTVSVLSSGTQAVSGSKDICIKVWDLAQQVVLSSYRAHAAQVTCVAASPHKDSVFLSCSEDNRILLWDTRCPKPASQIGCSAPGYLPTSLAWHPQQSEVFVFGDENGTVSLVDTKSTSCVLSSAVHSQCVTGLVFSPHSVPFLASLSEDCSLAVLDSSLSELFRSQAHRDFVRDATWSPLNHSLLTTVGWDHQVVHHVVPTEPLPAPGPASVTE

IC50 (PRMT5 [1])	IC50 (PRMT5 [2]; read-out: No Cofactor/rel IC50)	IC50 (PRMT5 [3])	IC50 [4, 7]	IC50 [5, 8]	IC50 (PRMT5 [2]; [11])	IC50 [5, 12]	IC50 ([4]; SDMA in-cell western)	IC50 ([5]; SDMA in-cell western, read-out: HAP1 MTAP deleted IC50)	SMILES	MTAP intact/deleted ratio [5, 9]	IC50 [6, 10]	IC50 [6, 13]	MTAP intact/deleted ratio [5, 14]	IC50 [6, 15]	IC50 [6, 16]	IC50 ([6]; viability assay, HAP1 MTAP-deleted)
50 to 500 nM	50 to 500 nM	< 50 nM	> 1000 nM	< 100 nM					C[C@@H]1CC[C@@H](c2cccc(Cl)c2)N(C(=O)C(=O)Nc2cncc(C(N)=O)c2)C1 (racemic) [Compound 174, rac-5-{2-[(2R,5S)-2-(3-Chlorophenyl)-5-methylpiperidin-1-yl]-2-oxoacetamido}pyridine-3-carboxamide]	A (an IC50 ratio greater than or equal to 10 fold)	1 to 10 µM					
50 to 500 nM		< 50 nM	100 to 1000 nM		< 50 nM	< 100 nM			Cc1cc(NC(=O)C(=O)N2C[C@@H](C)CC[C@@H]2c2ccc3sc(C4CCN(CC(F)F)CC4)nc3c2)cnc1N [Compound 1377, N-(6-amino-5-methylpyridin-3-yl)-2-((2R,5S)-2-(2-(1-(2,2-difluoroethyl)piperidin-4-yl)benzo[d]thiazol-5-yl)-5-methylpiperidin-1-yl)-2-oxoacetamide]	A (an IC50 ratio greater than or equal to 10 fold)		< 1 µM				
50 to 500 nM	50 to 500 nM	< 50 nM	100 to 1000 nM	< 100 nM					Cc1cc(NC(=O)C(=O)N2[C@H](C)CCC[C@@H]2c2ccccc2)cnc1N (single isomer, unassigned) [Compound 415]	A (an IC50 ratio greater than or equal to 10 fold)	1 to 10 µM					
50 to 500 nM		< 50 nM	< 100 nM		50 to 500 nM	< 100 nM			CCc1cc(NC(=O)C(=O)N2C[C@@H](C)CC[C@@H]2c2ccc3nn([C@@H]4CCN(C)C4)cc3c2)cnc1N (racemic) [Compound 1398, N-(6-Amino-5-ethyl-3-pyridyl)-2-oxo-2-[rac-(2R,5S)-5-methyl-2-[2-[rac-(3R)-1-methylpyrrolidin-3-yl]indazol-5-yl]-1-piperidyl]acetamide]	A (an IC50 ratio greater than or equal to 10 fold)		< 1 µM				
> 500 nM	> 500 nM	> 500 nM	> 1000 nM			> 1000 nM			COc1ncc(NC(=O)C(=O)N2C[C@@H](C)CC[C@@H]2c2ccc(NC(C)=O)nc2)cc1C(N)=O (single isomer, unassigned) [Compound 910]	B (an IC50 ratio greater than or equal to 3 fold but lower than 10 fold)	> 10 µM					
50 to 500 nM	50 to 500 nM	< 50 nM	> 1000 nM	< 100 nM					CNc1cccc([C@H]2CCCCN2C(=O)C(=O)Nc2cnc(N)c(C)c2)c1 (single isomer, unassigned) [Compound 356]	A (an IC50 ratio greater than or equal to 10 fold)	1 to 10 µM					
50 to 500 nM	< 50 nM	< 50 nM	100 to 1000 nM	< 100 nM					CCc1cc(NC(=O)C(=O)N2C[C@@H](C)CC[C@@H]2c2ccc3sc(-c4nccn4C)nc3c2)cnc1N [Compound 1192, N-(6-amino-5-ethylpyridin-3-yl)-2-((2R,5S)-5-methyl-2-(2-(1-methyl-1H-imidazol-2-yl)benzo[d]thiazol-5-yl)piperidin-1-yl)-2-oxoacetamide]		< 1 µM		A (an IC50 ratio greater than or equal to 10 fold)			
50 to 500 nM		< 50 nM			50 to 500 nM	< 100 nM	100 to 1000 nM		CC(=O)N1CCC(c2cccc(C3CCCCN3C(=O)C(=O)Nc3cnc(N)c(C)c3)c2)CC1 (single isomer, unassigned) [Compound 94]	B (an IC50 ratio greater than or equal to 3 fold but lower than 10 fold)				1 to 10 µM		
50 to 500 nM	> 500 nM	50 to 500 nM	> 1000 nM	> 1000 nM					C[C@@H]1CC[C@@H](c2cncc(-n3cccn3)c2)N(C(=O)C(=O)Nc2cncc(C(N)=O)c2)C1 (racemic) [Compound 226, rac-5-{2-[(2R,5S)-5-Methyl-2-[5-(1H-pyrazol-1-yl)pyridin-3-yl]piperidin-1-yl]-2-oxoacetamido}pyridine-3-carboxamide]	C (an IC50 ratio of less than 3 fold)	> 10 µM					
50 to 500 nM	50 to 500 nM	50 to 500 nM	> 1000 nM	100 to 1000 nM					Cc1cc(NC(=O)C(=O)N2C[C@H](C)CC[C@H]2c2cnn(-c3ccn[nH]3)c2)cnc1N (racemic) [Compound 793, N-(6-amino-5-methyl-3-pyridyl)-2-[(2R,5S)-5-methyl-2-[1-(1H-pyrazol-3-yl)pyrazol-4-yl]-1-piperidyl]-2-oxo-acetamide]	A (an IC50 ratio greater than or equal to 10 fold)					1 to 10 µM	
> 500 nM	> 500 nM	> 500 nM					> 1000 nM	> 1000 nM	[H][C@@]1([C@]2([H])C[C@]3(C[C@H](O)C3)C2)CC[C@@H](C)CN1C(=O)C(=O)Nc1cnc(N)c(C)c1 (single isomer, unassigned) [Compound 769]	C (an IC50 ratio of less than 3 fold)						> 10 µM
50 to 500 nM	< 50 nM	< 50 nM	100 to 1000 nM			< 100 nM			COc1ncc(NC(=O)C(=O)N2C[C@@H](C)CC[C@@H]2c2ccc3cnccc3c2)cc1C(N)=O (single isomer, unassigned) [Compound 914]	A (an IC50 ratio greater than or equal to 10 fold)	< 1 µM					
> 500 nM	> 500 nM	> 500 nM	> 1000 nM			> 1000 nM			Cc1cc(NC(=O)C(=O)N2C[C@@H](C)CC[C@@H]2c2cccc(S(C)(=O)=O)c2)cnc1N (single isomer, unassigned) [Compound 901]	C (an IC50 ratio of less than 3 fold)	> 10 µM					
50 to 500 nM		< 50 nM	> 1000 nM		50 to 500 nM	100 to 1000 nM			Cc1cc(NC(=O)C(=O)N2CCCC[C@@H]2c2ccccc2)cnc1N (single isomer, unassigned) [Compound 51]	B (an IC50 ratio greater than or equal to 3 fold but lower than 10 fold)	> 10 µM					
> 500 nM	> 500 nM	> 500 nM	> 1000 nM	> 1000 nM					Cc1cc(NC(=O)C(=O)N2C[C@@H](C)CC[C@@H]2c2ccccc2)cnc1C (single isomer, unassigned) [Compound 258]	C (an IC50 ratio of less than 3 fold)	> 10 µM					
> 500 nM	> 500 nM	> 500 nM	> 1000 nM	> 1000 nM					C[C@H]1CC[C@H](c2ccn(-c3cc[nH]n3)n2)N(C(=O)C(=O)Nc2cncc(C(N)=O)c2)C1 (single isomer, unassigned) [Compound 882]	C (an IC50 ratio of less than 3 fold)					> 10 µM	
50 to 500 nM	50 to 500 nM	< 50 nM	> 1000 nM	< 100 nM					COc1ncc(NC(=O)C(=O)N2CCCCC2C2CCCC2)cc1C(N)=O (single isomer, unassigned) [Compound 294, 5-(2-(2-cyclopentylpiperidin-1-yl)-2-oxoacetamido)-2-methoxynicotinamide]	A (an IC50 ratio greater than or equal to 10 fold)				1 to 10 µM		
< 50 nM	< 50 nM	< 50 nM	< 100 nM	< 100 nM					Cc1cc(NC(=O)C(=O)N2C[C@@H](C)CC[C@@H]2c2ccc3sc(C4CCN(C)CC4)nc3c2)cnc1C [Compound 1137, N-(5,6-dimethylpyridin-3-yl)-2-((2R,5S)-5-methyl-2-(2-(1-methylpiperidin-4-yl)benzo[d]thiazol-5-yl)piperidin-1-yl)-2-oxoacetamide]		< 1 µM		A (an IC50 ratio greater than or equal to 10 fold)			
